Values after ≈ are worked out from the molar mass of the structure shown.
Experiments:
MRSA USA300 = assay: Broth microdilution MIC, initial antibacterial screening; type: cell-based, S. aureus; conditions: Staphylococcus aureus; MRSA USA300; read-out: MIC
Protocol: (§1) The minimum inhibitory concentrations (MICs) of the tested compounds and control drugs against clinically-relevant bacterial strains were determined using the broth microdilution method, according to guidelines outlined by the Clinical and Laboratory Standards Institute (CLSI), or as described previously.
(§2) Initial screening of the bisphenylthiazoles against Gram-positive and Gram-negative bacteria. Bacterial strains, (except C. difficile that was grown anaerobically on brain heart infusion supplemented agar at 37° C for 48 hours), were grown aerobically overnight on tryptone soy agar plates at 37° C. Afterwards, a bacterial solution equivalent to 0.5 McFarland standard was prepared and diluted in cation-adjusted Mueller-Hinton broth (CAMHB) (for S. aureus, and E. coli) to achieve a bacterial concentration of about 5 × 10^5 CFU/mL. C. difficile was diluted in brain heart infusion supplemented broth, supplemented with yeast extract, hemin and vitamin K to achieve a bacterial concentration of about 5 × 10^5 CFU/mL. Compounds and control drugs were added in the first row of the 96 -well plates, and serially diluted with the corresponding media containing bacteria. Plates were then, incubated aerobi cally at 37° C for 18-20 hours (for S. aureus and E. coli). C. difficile was incubated anaerobically at 37° C for 48 hours. […]
(§3) the visual growth of bacteria.

[1] = test system: C. difficile ATCC BAA1870; assay: Broth microdilution MIC, initial antibacterial screening (anaerobic); type: cell-based, Clostridioides difficile; conditions: Clostridioides difficile, ATCCBAA1870, read-out: MIC
Protocol: as §1, §2, §3

Candida albicans = assay: Antifungal broth microdilution MIC (50% growth inhibition) and MFC; type: cell-based; conditions: Candida albicans, C. albicans SS5314 (wild-type); read-out: MIC
Protocol: Serial dilutions (from 128 μg/mL to 0.06 μg/mL) of the tested compounds and control drugs (fluconazole, itraconazole and amphotericin) (in triplicates), were screened against clinical isolates of Candida albicans, Candida auris, Candida glabrata, Candida parapsilosis, Candida tropicalis, Candida krusei, Cryptococcus neoformans, Cryptococcus gattii and Aspergillus fumigatus species using the broth microdilution method according to the Clinical and Laboratory Standards Institute guidelines. MICs were determined as the lowest concentration of the compounds that inhibited the fungal growth by 50% after incubation at 35 °C for 24 h (for Candida and Aspergillus), or 48 h (for Cryptococcus). The minimum fungicidal concentration (MFC) of these compounds was tested by plating 4 μL from wells with no growth onto YPD agar plates. The plates were incubated at 37 °C for 24 hours before recording the MFC, which was categorized as the lowest concentration that reduced fungal growth by 99.9% [45]. The experiment was repeated three independent times.

[2] = test system: E. coli BW25113 (wild-type); assay: Broth microdilution MIC, initial antibacterial screening; type: cell-based, Escherichia coli; conditions: Escherichia coli, read-out: MIC
Protocol: as §1, §2, §3

[3] = test system: E. coli JW55031 (tolC-mutant); assay: microbe, parasite or virus in culture; type: cell-based, Escherichia coli; conditions: Escherichia coli
Protocol: as §1, §2, §3

Structure (SMILES)	MIC (MRSA USA300)	MIC [1]	melting point	MIC (Candida albicans)	MIC [2]	MIC [3]
Cc1nc(-c2ccc(-c3ccccc3)cc2)sc1-c1nnc(N[C@H]2CC[C@H](N)CC2)o1 [Compound 18, trans-N-{5-[2-((1,1’-Biphenyl)-4-yl)-4-methylthiazol-5-yl]-1,3,4-oxadiazol-2-yl}cyclo-hexane-1,4-diamine]	32 µg/mL (≈ 74.1 µM)	8 µg/mL (≈ 18.5 µM)	260 to 263 °C	16 µg/mL (≈ 37.1 µM)	> 64 µg/mL	32 µg/mL (≈ 74.1 µM)
Cc1nc(-c2ccc(-c3ccccc3)cc2)sc1-c1nnc(NCCO)o1 [Compound 19, 2-{[5-(2-((1,1’-Biphenyl)-4-yl)-4-methylthiazol-5-yl)-1,3,4-oxadiazol-2-yl]amino} ethan-1-ol]	> 64 µg/mL	64 µg/mL (≈ 169 µM)	210 to 213 °C	> 64 µg/mL	> 64 µg/mL	> 64 µg/mL

— PMC8568133, “Evaluation of bisphenylthiazoles as a promising class for combating multidrug-resistant fungal infections” (PLoS ONE, 2021)
